Source: patent US20250368666A1, “INDAZOLE COMPOUNDS” (TYRA BIOSCIENCES, INC., priority 2022, published 2025)
Like-named read-outs stand apart in the source and are kept apart here.

Experiments:
FGFR1 = biological target: T1, FGFR1 (Homo sapiens, UniProt P11362); experiment: Kinase binding assay (kinase-tagged T7 phage, affinity beads, qPCR), Kd; conditions: read-out: FGFR1 (Kd nM)
T1 construct: made in house; host or cells: E. coli (BL21-derived), T7 phage
Protocol: (§1) Kinase-tagged T7 phage strains were prepared in an E. coli host derived from the BL21 strain. E. coli were grown to log-phase and infected with T7 phage and incubated with shaking at 32° C. until lysis. The lysates were centrifuged and filtered to remove cell debris. Streptavidin-coated magnetic beads were treated with biotinylated small molecule ligands for 30 minutes at room temperature to generate affinity resins for kinase assays. The liganded beads were blocked with excess biotin and washed with blocking buffer SeaBlock (Pierce), 1% BSA, 0.05% Tween 20, 1 mM DTT to remove unbound ligand and to reduce non-specific binding.
(§2) Test compounds were prepared as 111× stocks in 100% DMSO. Kds were determined using an 11-point 3-fold compound dilution series with three DMSO control points. […] The compounds were then diluted directly into the assays such that the final concentration of DMSO was 0.9%. All reactions performed in polypropylene 384-well plate. Each was a final volume of 0.02 ml. […] The kinase concentration in the eluates was measured by qPCR.
(§3) Binding constants were calculated with a standard dose-response curve using the Hill equation: […]
(§4) The Hill Slope was set to −1. Curves were fitted using a non-linear least square fit with the Levenberg-Marquardt algorithm.

FGFR3 = biological target: T2, FGFR3 (Homo sapiens, UniProt P22607); experiment: as above; conditions: read-out: FGFR3 (Kd nM)
T2 construct: made in house; host or cells: E. coli (BL21-derived), T7 phage
Protocol: as §1, §2, §3, §4

[1] = kinase binding assay, 11-point 3-fold dilution series

T2 sequence (P22607 23-806): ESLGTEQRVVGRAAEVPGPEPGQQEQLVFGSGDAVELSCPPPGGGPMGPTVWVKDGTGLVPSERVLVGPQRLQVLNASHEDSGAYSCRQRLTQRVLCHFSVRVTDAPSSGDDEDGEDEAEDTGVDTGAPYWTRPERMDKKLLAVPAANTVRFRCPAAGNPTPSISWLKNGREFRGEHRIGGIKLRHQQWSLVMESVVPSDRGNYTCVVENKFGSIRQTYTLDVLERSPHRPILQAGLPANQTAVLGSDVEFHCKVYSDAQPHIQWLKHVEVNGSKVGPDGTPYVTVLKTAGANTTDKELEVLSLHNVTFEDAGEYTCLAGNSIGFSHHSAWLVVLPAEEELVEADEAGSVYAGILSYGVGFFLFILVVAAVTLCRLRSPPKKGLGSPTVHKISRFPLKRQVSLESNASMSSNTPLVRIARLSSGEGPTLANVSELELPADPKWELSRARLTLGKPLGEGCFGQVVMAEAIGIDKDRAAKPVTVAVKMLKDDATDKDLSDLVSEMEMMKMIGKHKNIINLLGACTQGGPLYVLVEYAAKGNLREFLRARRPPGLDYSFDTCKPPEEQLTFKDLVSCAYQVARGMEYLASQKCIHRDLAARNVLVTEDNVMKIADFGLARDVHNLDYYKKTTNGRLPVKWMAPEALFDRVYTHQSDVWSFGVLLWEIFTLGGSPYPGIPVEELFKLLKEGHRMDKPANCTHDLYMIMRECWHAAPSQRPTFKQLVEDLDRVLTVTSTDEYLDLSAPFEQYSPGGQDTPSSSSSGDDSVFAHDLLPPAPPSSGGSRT
T1 sequence (P11362 22-822): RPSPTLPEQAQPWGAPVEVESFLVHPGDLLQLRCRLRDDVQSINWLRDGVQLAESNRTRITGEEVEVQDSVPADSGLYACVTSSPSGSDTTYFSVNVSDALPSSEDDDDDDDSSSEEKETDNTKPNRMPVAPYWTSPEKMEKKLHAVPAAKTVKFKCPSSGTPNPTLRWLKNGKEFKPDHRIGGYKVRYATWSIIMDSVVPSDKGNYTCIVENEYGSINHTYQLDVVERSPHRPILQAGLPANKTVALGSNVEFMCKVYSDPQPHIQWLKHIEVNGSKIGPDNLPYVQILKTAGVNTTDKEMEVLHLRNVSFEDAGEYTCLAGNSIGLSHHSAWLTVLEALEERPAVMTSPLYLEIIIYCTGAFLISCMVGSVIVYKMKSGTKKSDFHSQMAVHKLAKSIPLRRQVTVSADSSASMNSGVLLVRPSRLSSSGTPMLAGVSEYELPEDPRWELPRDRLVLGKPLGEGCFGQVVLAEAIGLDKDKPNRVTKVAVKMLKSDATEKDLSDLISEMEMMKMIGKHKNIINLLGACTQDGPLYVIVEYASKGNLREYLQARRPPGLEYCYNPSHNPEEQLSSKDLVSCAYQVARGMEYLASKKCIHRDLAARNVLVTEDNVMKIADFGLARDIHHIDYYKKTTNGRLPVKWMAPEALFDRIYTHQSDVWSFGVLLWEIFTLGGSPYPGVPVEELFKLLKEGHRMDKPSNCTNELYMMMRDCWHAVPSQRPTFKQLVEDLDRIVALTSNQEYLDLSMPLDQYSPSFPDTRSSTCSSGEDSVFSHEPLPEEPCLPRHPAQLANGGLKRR

Q: What does the source list for CNC(=O)CNC1(C)CN(c2ncc(-c3n[nH]c4ccc(O[C@H](C)c5c(Cl)cncc5Cl)cc34)cc2F)C1 [Example 399, (R)-2-((1-(5-(5-(1-(3,5-dichloropyridin-4-yl)ethoxy)-1H-indazol-3-yl)-3-fluoropyridin-2-yl)-3-methylazetidin-3-yl)amino)-N-methylacetamide]?
A: Kd (FGFR1; [1]): 1 to 50 nM; Kd (FGFR3; [1]): 1 to 50 nM

Q: With C[C@@H](Oc1ccc2[nH]nc(-c3ccc(N4CC(N)(CC(F)F)C4)nn3)c2c1)c1c(Cl)cncc1Cl [Example 397, (R)-1-(6-(5-(1-(3,5-dichloropyridin-4-yl)ethoxy)-1H-indazol-3-yl)pyridazin-3-yl)-3-(2,2-difluoro-ethyl)azetidin-3-amine] as the compound, how does the Kd (FGFR1; [1]) read?
A: Its Kd is 1 to 50 nM.

Q: And the Kd (FGFR3; [1])?
A: Its Kd is 1 to 50 nM.

Q: How did the Kd (FGFR1) turn out when C[C@@H](Oc1ccc2[nH]nc(-c3cnc(N4CC(C)(NCCN5CCCC5)C4)c(F)c3)c2c1)c1c(Cl)cncc1Cl [Example 268, (R)-1-(5-(5-(1-(3,5-dichloropyridin-4-yl)ethoxy)-1H-indazol-3-yl)-3-fluoropyridin-2-yl)-3-methyl-N-(2-(pyrrolidin-1-yl)ethyl)azetidin-3-amine] was run?
A: The Kd was 1 to 50 nM.

Q: What about the Kd (FGFR3) of the same compound?
A: Its Kd is 1 to 50 nM.

Q: For COc1cc2[nH]nc(-c3ccc(N4CC(C)(N)C4)nn3)c2cc1O[C@H](C)c1c(Cl)cncc1Cl [Example 393, (R)-1-(6-(5-(1-(3,5-dichloropyridin-4-yl)ethoxy)-6-methoxy-1H-indazol-3-yl)pyridazin-3-yl)-3-methylazetidin-3-amine], which Kd (FGFR1; [1]) is on record?
A: Its Kd is 1 to 50 nM.

Q: What about the Kd (FGFR3; [1]) of the same compound?
A: Its Kd is 1 to 50 nM.

Q: C[C@@H](Oc1ccc2[nH]nc(-c3ccc(N4CCC(N)(CCS(C)(=O)=O)CC4)nn3)c2c1)c1c(Cl)cncc1Cl [Example 398, (R)-1-(6-(5-(1-(3,5-dichloropyridin-4-yl)ethoxy)-1H-indazol-3-yl)pyridazin-3-yl)-4-(2-(methylsulfonyl)ethyl) piperidin-4-amine] was tested. Which Kd (FGFR1; [1]) did it give?
A: Its Kd is 1 to 50 nM.

Q: And the Kd (FGFR3; [1])?
A: The Kd was 1 to 50 nM.

Q: What does the source list for C[C@@H](Oc1ccc2[nH]nc(-c3ccc(N4CC(N)(CCO)C4)nc3)c2c1)c1c(Cl)cncc1Cl [Example 279, (R)-2-(3-amino-1-(5-(5-(1-(3,5-dichloropyridin-4-yl)ethoxy)-1H-indazol-3-yl)pyridin-2-yl)azetidin-3-yl)ethanol]?
A: Kd (FGFR1): 1 to 50 nM; Kd (FGFR3): 1 to 50 nM

Q: With C[C@@H](Oc1ccc2[nH]nc(-c3ccc(N4CC(C)(N)C4)nn3)c2c1)c1c(Cl)cncc1Cl [Example 286] as the compound, how does the Kd (FGFR1) read?
A: The Kd was 1 to 50 nM.

Q: And the Kd (FGFR3)?
A: The Kd was 1 to 50 nM.

Q: With CC(C)N(C)C1(CC#N)CN(c2ncc(-c3n[nH]c4ccc(O[C@H](C)c5c(Cl)cncc5Cl)cc34)cc2F)C1 [Example 257, (R)-2-(1-(5-(5-(1-(3,5-dichloropyridin-4-yl)ethoxy)-1H-indazol-3-yl)-3-fluoropyridin-2-yl)-3-(isopropyl(methyl)a-mino)azetidin-3-yl)acetonitrile] as the compound, how does the Kd (FGFR1) read?
A: Its Kd is 50 to 300 nM.

Q: And the Kd (FGFR3)?
A: The Kd was 1 to 50 nM.

Q: COc1cc2[nH]nc(-c3ccc(N4CCC(C)(N)C4)nc3)c2cc1O[C@H](C)c1c(Cl)cncc1Cl (stereo in doubt) [Example 380, (R)-1-(5-(5-((R)-1-(3,5-dichloropyridin-4-yl)ethoxy)-6-methoxy-1H-indazol-3-yl)pyridin-2-yl)-3-methylpyrrolidin-3-amine] was tested. Which Kd (FGFR1) did it give?
A: Its Kd is 1 to 50 nM.

Q: What about the Kd (FGFR3) of the same compound?
A: Its Kd is 1 to 50 nM.

Q: Which results are given for CCCC1(N)CN(c2ncc(-c3n[nH]c4ccc(O[C@H](C)c5c(Cl)cncc5Cl)cc34)cc2F)C1 [Example 265, (R)-1-(5-(5-(1-(3,5-dichloropyridin-4-yl)ethoxy)-1H-indazol-3-yl)-3-fluoropyridin-2-yl)-3-propylazetidin-3-amine]?
A: Kd (FGFR1): 1 to 50 nM; Kd (FGFR3): 1 to 50 nM

Q: How did the Kd (FGFR1; [1]) turn out when C[C@@H](Oc1ccc2[nH]nc(-c3cnc(N4CC[C@@](C)(N)C4)c(F)c3)c2c1)c1c(Cl)cncc1Cl [Example 408, (R)-1-(5-(5-((R)-1-(3,5-dichloropyridin-4-yl)ethoxy)-1H-indazol-3-yl)-3-fluoropyridin-2-yl)-3-methylpyrrolidin-3-amine] was run?
A: Its Kd is 1 to 50 nM.
